Measured values published in patent US8580965B2, “Substituted sulfonamide compounds” (Gruenenthal GmbH, priority 2006, dated 2013).

Assays:
[1] = target: T1, B1R receptor of the rat (bradykinin 1 receptor) (Rattus norvegicus, UniProt P97583); experiment: FLIPR Ca2+ assay (Fluo-4) on CHO K1 cells stably transfected with the B1R gene of the rat; % activation and % inhibition at 10 μM; assay type: cell-based; conditions: CHO-K1, test substance 10 μM; CHO K1 rB1R cells; Ca2+ inflow after 100 nM Des-Arg9-bradykinin; read-out: B1R antagonism, rat [10 μM] % inhibition
T1 construct: host or cells: CHO K1 cells (rB1R cells)
T1 sequence (P97583 1-337): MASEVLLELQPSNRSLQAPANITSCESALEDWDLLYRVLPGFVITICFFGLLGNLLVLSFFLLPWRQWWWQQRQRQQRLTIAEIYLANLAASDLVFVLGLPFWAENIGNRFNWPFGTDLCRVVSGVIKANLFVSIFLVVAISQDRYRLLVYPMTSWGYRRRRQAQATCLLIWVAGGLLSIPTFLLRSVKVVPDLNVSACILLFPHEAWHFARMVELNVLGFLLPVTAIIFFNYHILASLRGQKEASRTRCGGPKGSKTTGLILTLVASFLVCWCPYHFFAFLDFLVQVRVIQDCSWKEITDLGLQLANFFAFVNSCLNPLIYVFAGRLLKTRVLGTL
How it was run: (§1)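 Fluo-4 Ca2+ flux on FLIPR in stable hB1R or rB1R CHO K1 lines, two additions. Agonism: 10 µM compound versus 0.5 nM Lys-Des-Arg9-BK (human) or 100 nM Des-Arg9-BK (rat); antagonism: same agonists applied 10 min later, suppression expressed against maximum achievable inhibition.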

[2] = target: T2, human B1R receptor (bradykinin 1 receptor) (Homo sapiens, UniProt P46663); experiment: FLIPR Ca2+ assay (Fluo-4) on CHO K1 cells stably transfected with the human B1R gene; % activation and % inhibition at 10 μM; assay type: cell-based; conditions: CHO-K1, test substance 10 μM; CHO K1 hB1R cells; Ca2+ inflow after 0.5 nM Lys-Des-Arg9-bradykinin; read-out: B1R antagonism, human [10 μM] % inhibition
T2 construct: host or cells: CHO K1 cells (hB1R cells)
T2 sequence (P46663 1-353): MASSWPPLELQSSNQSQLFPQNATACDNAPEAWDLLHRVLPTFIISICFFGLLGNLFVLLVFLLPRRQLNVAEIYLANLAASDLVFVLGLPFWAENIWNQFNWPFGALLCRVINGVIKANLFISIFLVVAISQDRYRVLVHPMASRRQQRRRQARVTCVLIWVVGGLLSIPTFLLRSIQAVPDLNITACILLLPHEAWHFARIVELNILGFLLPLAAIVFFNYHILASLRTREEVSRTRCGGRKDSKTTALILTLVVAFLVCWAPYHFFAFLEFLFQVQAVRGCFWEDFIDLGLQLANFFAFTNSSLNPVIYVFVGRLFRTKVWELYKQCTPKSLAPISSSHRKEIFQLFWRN
How it was run: as §1

Row | SMILES | inhibition at 10 µM [1] [%] | inhibition at 10 µM [2] [%]
1 | O=C(COCC1CCCCN1S(=O)(=O)c1cccc(C(F)(F)F)c1)N1CCC(O)(c2ccccn2)CC1 (stereo not shown) [Example 96, 1-(4′-hydroxy-3′,4′,5′,6′-tetrahydro-2′H-[2,4′]bipyridinyl-1′-yl)-2-[1-(3-trifluoromethyl-phenylsulfonyl)-piperidin-2-ylmethoxy]-ethanone] | 46.2 | 50.5
2 | Cc1ccc(F)cc1S(=O)(=O)N(C)CCOCC(=O)N1CCC(O)(c2ccccn2)CC1 [Example 97, 5-fluoro-N-{2-[2-(4′-hydroxy-3′,4′,5′,6′-tetrahydro-2′H-[2,4′]bipyridinyl-1′-yl)-2-oxo-ethoxy]-ethyl}-2,N-dimethyl-phenylsulfonamide] | 43.2 | 35.4
3 | O=C(COC1CCN(S(=O)(=O)c2c(Cl)cc(Cl)cc2Cl)C1)N1CCC(O)(c2ccccn2)CC1 (stereo not shown) [Example 98, 1-(4′-hydroxy-3′,4′,5′,6′-tetrahydro-2′H-[2,4′]bipyridinyl-1′-yl)-2-[1-(2,4,6-trichloro-phenylsulfonyl)-pyrrolidin-3-yloxy]-ethanone] | 31.9 | 29.1
4 | O=C(COCC1Cc2ccccc2N1S(=O)(=O)c1ccc(Cl)c(Cl)c1)N1CCC(O)(Cc2ccccc2)CC1 (stereo not shown) [Example 99, 1-(4-benzyl-4-hydroxy-piperidin-1-yl)-2-[1-(3,4-dichloro-phenylsulfonyl)-2,3-dihydro-1H-indol-2-ylmethoxy]-ethanone] | -12.4 | -22.9
5 | O=C(COCC1Cc2ccccc2N1S(=O)(=O)c1ccc(Cl)c(Cl)c1)N1CCC(O)(c2cccnc2)CC1 (stereo not shown) [Example 100, 2-[1-(3,4-dichloro-phenylsulfonyl)-2,3-dihydro-1H-indol-2-ylmethoxy]-1-(4′-hydroxy-3′,4′,5′,6′-tetrahydro-2′H-[3,4′]bipyridinyl-1′-yl)-ethanone] | -0.67 | -6.26

Other lines, results leading:

Row | inhibition at 10 µM [1] [%] | inhibition at 10 µM [2] [%] | SMILES
6 | 85.4 | 102 | Cc1cc(C)c(S(=O)(=O)N2Cc3ccccc3CC2COCC(=O)N2CCC(O)(c3ccccc3)CC2)c(C)c1 (stereo not shown) [Example 101, 1-(4-hydroxy-4-phenylpiperidin-1-yl)-2-((2-(mesitylsulfonyl)-1,2,3,4-tetrahydroisoquinolin-3-yl)methoxy)ethanone]
7 | 16.1 | 14.2 | CN(CCOCC(=O)N1CCC(O)(c2cccnc2)CC1)S(=O)(=O)c1ccc(Cl)s1 [Example 102, 5-chloro-thiophene-2-sulfonic acid {2-[2-(4′-hydroxy-3′,4′,5′,6′-tetrahydro-2′H-[3,4′]bipyridinyl-1′-yl)-2-oxo-ethoxy]-ethyl}-methyl-amide]
8 | 19.3 | -9.25 | CN(CCOCC(=O)N1CCC(O)(c2ccccn2)CC1)S(=O)(=O)c1ccc(Cl)s1 [Example 103, 5-chloro-thiophene-2-sulfonic acid {2-[2-(4′-hydroxy-3′,4′,5′,6′-tetrahydro-2′H-[2,4′]bipyridinyl-1′-yl)-2-oxo-ethoxy]-ethyl}-methyl-amide]
9 | 95.8 | 99.7 | Cc1cc(Cl)cc(Cl)c1S(=O)(=O)N(C)CCOCC(=O)N1CCC(O)(c2ccc(Cl)cc2)CC1 [Example 104, 2,4-dichloro-N-(2-(2-(4-(4-chlorophenyl)-4-hydroxypiperidin-1-yl)-2-oxoethoxy)ethyl)-N,6-dimethylphenylsulfonamide]
10 | 96.1 | 98.6 | Cc1cc(Cl)cc(Cl)c1S(=O)(=O)N(C)CCOCC(=O)N1CCC(O)(c2ccccc2)CC1 [Example 105, 2,4-dichloro-N-(2-(2-(4-hydroxy-4-phenylpiperidin-1-yl)-2-oxoethoxy)ethyl)-N,6-dimethylphenylsulfonamide]
11 | 96.1 | 97.8 | Cc1cc(Cl)cc(Cl)c1S(=O)(=O)N(C)CCOCC(=O)N1CCC(O)(Cc2ccccc2)CC1 [Example 106, N-{2-[2-(4-benzyl-4-hydroxy-piperidin-1-yl)-2-oxo-ethoxy]-ethyl}-2,4-dichloro-6,N-dimethyl-phenylsulfonamide]
